The values below come from ChEMBL document CHEMBL1201862, “PubChem BioAssay data set” (2004).

Test systems include XF498; SNB-78; M19-MEL; LXFL 529; DLD-1; HOP-18; DMS-114; DMS-273; RXF 631.
Common to all, as to experiment: NCI-60 cell line screen, 48 h

The structures appear in SMILES notation.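 96-well plates; 48 h exposure; 5 concentrations. Endpoints by linear interpolation between flanking doses. Not reached: highest tested concentration assigned. Here, GI50 denotes the concentration required for 50% inhibition of growth.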 Calls of active or inactive are those of the source. Rule as the data show it: active = GI50 up to about 1.1 µM and inactive = higher.

With `CCOC(=O)C(C(=O)Cc1ccccc1)c1ccccc1` (stereo not given), the GI50 in the assay with XF498, with SNB-78, in the assay with M19-MEL, in the assay with LXFL 529 and in the assay on DLD-1 was > 100 µM (inactive) throughout.
`O=C1C=C(Nc2cccnc2)c2ccccc2C1=O`: the GI50 in the assay on HOP-18 was 10.3 µM (inactive); in the assay with SNB-78, 15.5 µM (inactive); in the assay with DMS-114 it was 2.02 µM (inactive); in the assay on LXFL 529, 11.4 µM (inactive); with DLD-1, 5.11 µM (inactive); with DMS-273, 6.81 µM (inactive).
Take `Cc1cccc(NC(=O)CSc2nnc(Cc3ccccc3)o2)c1`: the GI50 with HOP-18, in the assay on SNB-78, with DMS-114, with LXFL 529, in the assay on DLD-1 and with DMS-273 was > 100 µM (inactive) each time.
As to `Cc1occ2c1C(=O)CC1C2[C@@H](O)CC2C(C)(C)CCC[C@]12C` (stereo not given in full), the GI50 in the assay on HOP-18 is > 100 µM (inactive); with XF498, > 100 µM (inactive); in the assay on SNB-78, > 100 µM (inactive); in the assay on M19-MEL it was > 100 µM (inactive); in the assay on DMS-114 it was 82.8 µM (inactive); in the assay on LXFL 529, > 100 µM (inactive). In the assay with DLD-1, the GI50 was > 100 µM (inactive).
Turning to `O=C(CC1(O)C(=O)Nc2ccccc21)c1ccccc1Cl` (stereo not given), the GI50 in the assay with XF498, with SNB-78, in the assay on M19-MEL, in the assay with DMS-114, in the assay with LXFL 529 and with DLD-1 was > 100 µM (inactive) each time. Further, the GI50 in the assay on DMS-273 is > 100 µM (inactive).
Consider `COC(=O)C(=O)C(CC(=O)Nc1c(C)cccc1C)C(=O)OC` (stereo not given), for which the GI50 in the assay on RXF 631, with HOP-18, in the assay with XF498, with SNB-78, in the assay with M19-MEL and in the assay on DMS-114 was > 100 µM (inactive) in each case. Also, the GI50 with LXFL 529 and in the assay with DLD-1 was > 100 µM (inactive) each time.
Take `C=CCNC(=S)N1CC(C)C(=O)Nc2ccccc21` (stereo not given): the GI50 in the assay on XF498, with SNB-78, with DMS-114, in the assay on LXFL 529 and with DMS-273 was > 100 µM (inactive) throughout.
`Cc1ccc(C2=Nc3ccccc3[S+]([O-])C(c3ccc4c(c3)OCO4)C2)cc1` (stereo not given): the GI50 was > 100 µM (inactive) with HOP-18; 16.5 µM (inactive) in the assay with XF498; 24.7 µM (inactive) with SNB-78; 27 µM (inactive) with M19-MEL; > 10 µM (inactive) in the assay on LXFL 529; 12.3 µM (inactive) in the assay with DLD-1. Besides, the GI50 with DMS-273 was 28.6 µM (inactive).
Take `O=C(CSc1nnc(Cc2ccccc2)o1)Nc1ccc(Cl)cc1Cl`: the GI50 in the assay on HOP-18, with SNB-78, with M19-MEL, in the assay on DMS-114, in the assay on LXFL 529 and with DLD-1 was > 100 µM (inactive) in each case. The GI50 in the assay on DMS-273 was > 100 µM (inactive).
As to `Cc1c(Cl)cccc1NC(=O)/C(Cl)=C(\Cl)C(=O)O`, the GI50 in the assay on RXF 631 is 24.8 µM (inactive); in the assay with HOP-18 it was 17.5 µM (inactive); with SNB-78, 20 µM (inactive); in the assay on M19-MEL, 17 µM (inactive); in the assay on DMS-114, 21.2 µM (inactive); with LXFL 529, 19.8 µM (inactive). Moreover, the GI50 is 18.2 µM (inactive) with DLD-1 and 20.9 µM (inactive) in the assay on DMS-273.
Consider `CN(C)c1n/c(=N/c2ccc3ccccc3c2)ss1`, for which the GI50 with HOP-18 is 25.3 µM (inactive); with SNB-78, 42.6 µM (inactive); with DMS-114, 9.06 µM (inactive); with LXFL 529 it was 9.1 µM (inactive); with DLD-1, 15.4 µM (inactive); in the assay with DMS-273, > 10 µM (inactive).
Take `COC(=O)C(Cc1ccccc1)NC(=O)Cn1ccnc1[N+](=O)[O-]` (stereo not given): the GI50 is > 100 µM (inactive) with RXF 631; 67.8 µM (inactive) with HOP-18; > 100 µM (inactive) with XF498; 95.3 µM (inactive) in the assay on M19-MEL; > 100 µM (inactive) in the assay on DMS-114; > 100 µM (inactive) in the assay with LXFL 529. Also, the GI50 in the assay on DMS-273 is > 100 µM (inactive).
`CCNC(=O)O/N=C1\CCC2[C@@H]3CC=C4C[C@@H](OC5CCCCO5)CC[C@]4(C)C3CC[C@]12C` (stereo not given in full): the GI50 is 2.75 µM (inactive) in the assay with RXF 631; 1.42 µM (inactive) in the assay on HOP-18; 2.24 µM (inactive) in the assay with SNB-78; 1.76 µM (inactive) in the assay on M19-MEL; 1.26 µM (inactive) in the assay on DMS-114; 1.2 µM (inactive) with LXFL 529. Also, the GI50 in the assay on DLD-1 is 4.45 µM (inactive); in the assay on DMS-273, 1.52 µM (inactive).
`COc1cc2cccc(/N=C\c3ccccc3Cl)c2cc1OC`: the GI50 with HOP-18 was > 100 µM (inactive); in the assay with SNB-78, > 100 µM (inactive); with M19-MEL, > 100 µM (inactive); with DMS-114, 35.2 µM (inactive); with LXFL 529, > 100 µM (inactive); in the assay on DLD-1, > 100 µM (inactive).
Turning to `COc1ccc(C(c2ccccc2C(=O)O)c2ccc(OC)c3ccccc23)c2ccccc12`, the GI50 in the assay on HOP-18 is 3.39 µM (inactive); in the assay with XF498 it was 20.9 µM (inactive); in the assay on SNB-78 it was 20.9 µM (inactive); with M19-MEL it was 12.5 µM (inactive); in the assay with DMS-114, 7.06 µM (inactive); in the assay on LXFL 529, 6.35 µM (inactive). The GI50 is 7.31 µM (inactive) with DLD-1 and 14 µM (inactive) with DMS-273.
Regarding `C=C=C(Sc1ccccc1)C(C)(C)O`, the GI50 in the assay on RXF 631, in the assay with HOP-18, with XF498, in the assay on M19-MEL, with LXFL 529 and in the assay on DLD-1 was > 100 µM (inactive) throughout.
For the molecule `O=C(Cc1ccccc1)N/N=C(/c1nc2ccc([N+](=O)[O-])cc2nc1O)C(O)c1ccc(C(O)/C(=N/NC(=O)Cc2ccccc2)c2nc3ccc([N+](=O)[O-])cc3nc2O)cc1` (stereo not given), the GI50 with RXF 631 is 51.3 µM (inactive); in the assay on XF498, 29.8 µM (inactive); in the assay on M19-MEL, 58.9 µM (inactive); in the assay with DMS-114 it was 4.29 µM (inactive); with LXFL 529, 24.7 µM (inactive); in the assay on DLD-1, 56.8 µM (inactive).
As for `Cc1ccc([N+](=O)[O-])cc1NC(=O)/C(CC(=O)c1sc(C(N)=S)nc1C)=N\N`, the GI50 in the assay on RXF 631 is 31.5 µM (inactive); in the assay on HOP-18, 71.3 µM (inactive); in the assay with SNB-78 it was > 100 µM (inactive); in the assay on M19-MEL, 71.8 µM (inactive); in the assay on DMS-114, 30.3 µM (inactive); with LXFL 529 it was 41.7 µM (inactive). Besides, the GI50 was > 100 µM (inactive) with DLD-1 and 29.7 µM (inactive) in the assay with DMS-273.
For the molecule `CCN(CC)c1cccc2c1C1(O)CCC3(CC21)OCCCCO3` (stereo not given), the GI50 in the assay with HOP-18 was > 100 µM (inactive); in the assay on SNB-78 it was > 100 µM (inactive); with M19-MEL it was 91.4 µM (inactive); in the assay on DMS-114 it was 94.6 µM (inactive); in the assay on LXFL 529 it was > 100 µM (inactive); with DLD-1, 57.1 µM (inactive). Also, in the assay on DMS-273, the GI50 was > 100 µM (inactive).
With `N#CC1(C2CC(=O)N(c3ccccc3)C2=O)CCCCC1=O` (stereo not given), the GI50 in the assay with RXF 631 was > 100 µM (inactive); in the assay with HOP-18, > 100 µM (inactive); in the assay with XF498 it was 9.2 µM (inactive); in the assay on SNB-78, > 100 µM (inactive); in the assay on M19-MEL it was > 100 µM (inactive); in the assay with DMS-114, > 100 µM (inactive). The GI50 with LXFL 529, in the assay on DLD-1 and with DMS-273 was > 100 µM (inactive) in each case.
For the molecule `CCOC(=O)c1[nH]c2cc(OC)c(OC)cc2c1CN(C)C`, the GI50 with SNB-78, in the assay with DMS-114 and in the assay on DLD-1 was > 100 µM (inactive) throughout.
In the case of `Cc1c(-c2ccccc2)c(=O)oc2ccc(Cl)cc12`, the GI50 was > 100 µM (inactive) in the assay on HOP-18; 26 µM (inactive) with SNB-78; > 100 µM (inactive) in the assay with M19-MEL; 26.6 µM (inactive) in the assay on DMS-114; > 100 µM (inactive) in the assay with LXFL 529; > 100 µM (inactive) in the assay with DLD-1. For the same molecule, in the assay with DMS-273, the GI50 is 87.1 µM (inactive).
Take `CC(=O)c1ccc(NC(=O)C(=O)Nn2c(S)nc3ccccc3c2=O)cc1`: the GI50 in the assay with HOP-18, in the assay with XF498, in the assay with SNB-78, in the assay with M19-MEL, in the assay with DMS-114 and in the assay on LXFL 529 was > 100 µM (inactive) in each case. Further, the GI50 in the assay on DLD-1 was > 100 µM (inactive).
As for `CC(=O)c1cccc(NC(=O)/C(=N\NC(C)(C)C)c2c(O)c3ccccc3oc2=O)c1`, the GI50 was > 100 µM (inactive) in the assay with HOP-18; > 100 µM (inactive) in the assay with XF498; 84.7 µM (inactive) in the assay with M19-MEL; > 100 µM (inactive) with DMS-114; > 100 µM (inactive) in the assay with LXFL 529; > 100 µM (inactive) in the assay with DLD-1. In the assay on DMS-273, the GI50 is > 100 µM (inactive).
Take `N#CCc1ccc(C(C#N)/C(CCCC(=O)Nc2cccc([N+](=O)[O-])c2)=N\NC(=O)NN)cc1` (stereo not given): the GI50 in the assay on HOP-18, with SNB-78, with M19-MEL, in the assay on DMS-114, in the assay with LXFL 529 and in the assay on DLD-1 was > 100 µM (inactive) throughout. Moreover, in the assay with DMS-273, the GI50 is > 100 µM (inactive).
For the molecule `CCCCCC[C@@H]1CCC2C(CO)[C@@H](O)CC[C@@H]2C1` (stereo not given in full), the GI50 in the assay with HOP-18 is 22.4 µM (inactive); in the assay on XF498, 24.7 µM (inactive); in the assay with SNB-78, 19.2 µM (inactive); in the assay with M19-MEL it was 18.2 µM (inactive); in the assay with DMS-114, 19.6 µM (inactive); in the assay with LXFL 529, 18.5 µM (inactive). The GI50 was 18.8 µM (inactive) in the assay on DLD-1 and 20.2 µM (inactive) with DMS-273.
Turning to `COCC(C#N)NC1CC(OC2CC(O)(C(=O)CO)Cc3c(O)c4c(c(O)c32)C(=O)c2c(OC)cccc2C4=O)OC(C)C1O` (stereo not given), the GI50 in the assay on RXF 631 was 0.0716 µM (active); with HOP-18 it was 0.125 µM (active); with XF498, 0.0427 µM (active); in the assay with SNB-78, 0.235 µM (active); in the assay on M19-MEL it was 0.0528 µM (active); in the assay on DMS-114 it was 0.0361 µM (active). Also, the GI50 was 0.083 µM (active) in the assay with LXFL 529, 0.2 µM (active) with DLD-1 and 0.0266 µM (active) with DMS-273.
